# In patent US6403580B1, “Quinazolines, pharmaceutical compositions containing these compounds, their use and processes for preparing them” (Boehringer Ingelheim Pharma KG, priority 2000, dated 2002):
# Key:
# human EGF-R = molecular target: T1, human EGF-R (Homo sapiens, UniProt P00533); test: Inhibition of EGF-dependent proliferation of F/L-HERc cells; type: cell-based; settings: F/L-HERc cells (murine IL-3-dependent line expressing human EGF-R), stimulated with EGF 20 ng/ml, 48 hours, Cell Titer 96 assay
# T1 construct: expressed in transfected cells; host or cells: F/L-HERc cells (murine IL-3-dependent FDC-P1 line, transduced with retroviral vector LXSN carrying human EGF-R cDNA; packaging line GP+E86)
# Source text: A cell line of murine origin dependent on interleukin-3-(IL-3) which was genetically modified to express functional human EGF-R was used here. The proliferation of these cells known as F/L-HERc can therefore be stimulated either by murine IL-3 or by EGF (cf. von Rüden, T. et al. in EMBO J . 7, 2749-2756 (1988) and Pierce, J. H. et al. in Science 239, 628-631 (1988)).
# The starting material used for the F/L-HERc cells was the cell line FDC-P1, the production of which has been described by Dexter, T. M. et al. in J. Exp. Med. 152, 1036-1047 (1980). Alternatively, however, other growth-factor-dependent cells may also be used (cf. for example Pierce, J. H. et al. in Science 239, 628-631 (1988), Shibuya, H. et al. in Cell 70, 57-67 (1992) and Alexander, W. S. et al. in EMBO J. 10, 3683-3691 (1991)). […]
# In order to determine the inhibitory activity of the compounds according to the invention the relative cell number was measured in O.D. units using the Cell Titer 96™ Aqueous Non-Radioactive Cell Proliferation Assay (Promega). […]
# T1 sequence (P00533 25-1210): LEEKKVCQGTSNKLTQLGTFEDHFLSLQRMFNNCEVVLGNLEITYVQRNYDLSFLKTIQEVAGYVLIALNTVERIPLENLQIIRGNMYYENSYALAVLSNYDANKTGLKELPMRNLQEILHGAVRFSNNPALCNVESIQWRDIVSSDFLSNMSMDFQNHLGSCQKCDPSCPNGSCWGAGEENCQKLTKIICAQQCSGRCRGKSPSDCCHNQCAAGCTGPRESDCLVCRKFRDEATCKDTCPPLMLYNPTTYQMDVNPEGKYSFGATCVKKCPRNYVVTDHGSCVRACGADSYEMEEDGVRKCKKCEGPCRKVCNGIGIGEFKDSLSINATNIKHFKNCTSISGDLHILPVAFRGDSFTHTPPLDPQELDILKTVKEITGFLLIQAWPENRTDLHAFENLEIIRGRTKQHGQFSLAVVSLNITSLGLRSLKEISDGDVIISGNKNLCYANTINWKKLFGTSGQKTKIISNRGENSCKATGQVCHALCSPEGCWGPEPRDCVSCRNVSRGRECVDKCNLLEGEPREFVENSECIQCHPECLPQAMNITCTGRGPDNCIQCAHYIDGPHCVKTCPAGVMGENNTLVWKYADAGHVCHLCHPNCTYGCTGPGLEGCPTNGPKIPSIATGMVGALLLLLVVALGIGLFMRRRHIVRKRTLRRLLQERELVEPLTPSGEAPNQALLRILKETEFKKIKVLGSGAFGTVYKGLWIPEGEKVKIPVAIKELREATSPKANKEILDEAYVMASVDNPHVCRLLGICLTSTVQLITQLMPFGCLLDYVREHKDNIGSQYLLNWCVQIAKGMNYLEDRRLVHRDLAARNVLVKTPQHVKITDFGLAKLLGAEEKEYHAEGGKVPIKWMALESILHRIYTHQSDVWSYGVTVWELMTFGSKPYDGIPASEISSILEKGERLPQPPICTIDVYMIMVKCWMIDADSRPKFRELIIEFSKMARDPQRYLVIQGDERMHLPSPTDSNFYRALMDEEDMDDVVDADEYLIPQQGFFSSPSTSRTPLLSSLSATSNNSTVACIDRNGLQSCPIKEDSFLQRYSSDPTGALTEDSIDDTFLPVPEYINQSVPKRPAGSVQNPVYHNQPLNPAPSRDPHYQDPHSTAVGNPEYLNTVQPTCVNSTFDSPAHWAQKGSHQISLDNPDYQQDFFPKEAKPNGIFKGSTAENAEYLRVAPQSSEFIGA
melting point [°C],IC50 (human EGF-R) [pM],Structure (SMILES)
182.5 to 184,–,"C=CC(=O)Nc1cc2c(Nc3ccc(F)c(Cl)c3)ncnc2cc1OCCN1CC(=O)OC(C)(C)C1 [Example 1(1), 4-[(3-chloro-4-fluoro-phenyl)amino]-7-[2-(2,2-dimethyl-6-oxo-morpholin-4-yl)-ethoxy]-6-[(vinylcarbonyl)amino]-quinazoline]"
110 to 112,–,"C=CC(=O)Nc1cc2c(Nc3ccc(F)c(Cl)c3)ncnc2cc1OCCCCN1CC(=O)OC(C)(C)C1 [Example 1(15), 4-[(3-chloro-4-fluorophenyl)amino]-7-[4-(2,2-dimethyl-6-oxo-morpholin-4-yl)-butyloxy]-6-[(vinylcarbonyl)amino]-quinazoline]"
–,400,"C=CC(=O)Nc1cc2c(N[C@H](C)c3ccccc3)ncnc2cc1OCCN1CC(=O)OC(C)(C)C1 [1(2), 4-[(R)-(1-phenyl-ethyl)amino]-7-[2-(2,2-dimethyl-6-oxo-morpholin-4-yl)-ethoxy]-6-[(vinylcarbonyl)amino]-quinazoline]"
195 to 199,–,"C=CC(=O)Nc1cc2c(Nc3ccc(F)c(Cl)c3)ncnc2cc1OCCN(C)C1COC(=O)C1 (stereo not shown) [Example 1(11), 4-[(3-chloro-4-fluorophenyl)amino]-7-{2-[N-(2-oxo-tetrahydrofuran4-yl)-N-methyl-amino]-ethoxy}-6-[(vinylcarbonyl)amino]-quinazoline]"
